Laboratory results reported in patent publication US20140045824A1, “METHOD FOR PRODUCING COMPLEX CRYSTAL AND METHOD FOR SCREENING COMPLEX CRYSTAL” (priority 2011, published 2014).

How the values were obtained:
[1] = Cocrystal screening by heating method without menthol (Comparative Example 6); assay type: physicochemical; set-up: key: A cocrystal was completely formed.; B: A mixture of a cocrystal and the host compound or guest compound was formed.; C: A cocrystal was not formed (a mixture of the host compound and the guest compound was formed); conditions: host carbamazepine, equimolar guest, no menthol, 4 hours at 80° C.
Method: Carbamazepine and a guest compound shown in Table 4 in an equimolar amount to carbamazepine were weighed and mixed using an agate mortar. At that time, particles having a large size to an extent that they could be distinguished through visual inspection were grinded on the agate mortar. 10 mg of this mixed powder was weighed and put into a test tube and heated for 4 hours in an oven at 80° C., and the obtained solids were subjected to powder X-ray diffraction measurement and thermal analysis.

[2] = Cocrystal screening by slurry method (Comparative Examples 1-1 to 1-6), powder X-ray diffraction; assay type: physicochemical; set-up: key to Cocrystal formation, Comparative Example 1* / Cocrystal formation, Comparative Example 1-1 / Cocrystal formation, Comparative Example 1-2 / Cocrystal formation, Comparative Example 1-3 / Cocrystal formation, Comparative Example 1-4 / Cocrystal formation, Comparative Example 1-5 / Cocrystal formation, Comparative Example 1-6: A cocrystal was completely formed.; B: A mixture of a cocrystal and the host compound or guest compound was formed.; C: A cocrystal was not formed (a mixture of the host compound and the guest compound was formed); conditions: host theophylline; for Cocrystal formation, Comparative Example 1-6: slurry in acetone; for Cocrystal formation, Comparative Example 1-6 / Cocrystal formation, Comparative Example 1-2 / Cocrystal formation, Comparative Example 1-5 / Cocrystal formation, Comparative Example 1-3 / Cocrystal formation, Comparative Example 1-4 / Cocrystal formation, Comparative Example 1-1: room temperature 7 days; for Cocrystal formation, Comparative Example 1-2: slurry in ethanol; for Cocrystal formation, Comparative Example 1-5: slurry in ethyl acetate; for Cocrystal formation, Comparative Example 1-3: slurry in tetrahydrofuran; for Cocrystal formation, Comparative Example 1-4: slurry in toluene; for Cocrystal formation, Comparative Example 1-1: slurry in water; for Cocrystal formation, Comparative Example 1*: slurry summary: A if a cocrystal was formed in any one of Comparative Examples 1-1 to 1-6
Method: 3 mg (0.0167 mmoles) of theophylline and a guest compound shown in Table 1 in an equimolar amount (0.0167 mmoles) to theophylline were weighed and put into a glass container, to which was then added 60 μL of water. These were shaken at room temperature for 7 days, and the obtained residues were subjected to powder X-ray diffraction measurement. 3 mg (0.0167 mmoles) of theophylline and a guest compound shown in Table I in an equimolar amount (0.0167 mmoles) to theophylline were weighed and put into a glass container, to which was then added 60 μL of ethanol. These were shaken at room temperature for 7 days, and the obtained residues were subjected to powder X-ray diffraction measurement. 3 mg (0.0167 mmoles) of theophylline and a guest compound shown in Table 1 in an equimolar amount (0.0167 mmoles) to theophylline were weighed and put into a glass container, to which was then added 60 μL of tetrahydrofuran. This was shaken at room temperature for 7 days, and the obtained residues were subjected to powder X-ray diffraction measurement. 3 mg (0.0167 mmoles) of theophylline and a guest compound shown in Table 1 in an equimolar amount (0.0167 mmoles) to theophylline were weighed and put into a glass container, to which was then added 60 μL of toluene. These were shaken at room temperature for 7 days, and the obtained residues were subjected to powder X-ray diffraction measurement. 3 mg (0.0167 mmoles) of theophylline and a guest compound shown in Table 1 in an equimolar amount (0.0167 mmoles) to theophylline were weighed and put into a glass container, to which was then added 60 μL of ethyl acetate. These were shaken at room temperature for 7 days, and the obtained residues were subjected to powder X-ray diffraction measurement. 3 mg (0.0167 mmoles) of theophylline and a guest compound shown in Table 1 in an equimolar amount (0.0167 mmoles) to theophylline were weighed and put into a glass container, to which was then added 60 μL of acetone. These were shaken at room temperature for 7 days, and the obtained residues were subjected to powder X-ray diffraction measurement.

SMILES | Cocrystal formation, Comparative Example 6 [1] | Cocrystal formation, Comparative Example 1-6 [2] | Cocrystal formation, Comparative Example 1-2 [2] | Cocrystal formation, Comparative Example 1-5 [2] | Cocrystal formation, Comparative Example 1-3 [2] | Cocrystal formation, Comparative Example 1-4 [2] | Cocrystal formation, Comparative Example 1-1 [2] | Cocrystal formation, Comparative Example 1* [2]
O=C(O)/C=C\C(=O)O [Maleic acid] | C | C | C | A | C | A | C | A
NC(=O)c1cccnc1 [Nicotinamide] | B | A | B | A | B | A | C | A
O=S(=O)(O)CCS(=O)(=O)O [Ethanedisulfonic acid] | B | A | A | A | A | A | C | A
NC(=O)c1ccccc1 [Benzamide] | B | C | C | C | C | C | A | A
